Test results as given in patent US8067611B2, “Substituted 1-(thiazolyl)-and 1-(isothiazolyl)pyrazol-4-ylacetic acids, processes for their preparation and their use as herbicides and plant growth regulators” (Bayer CropScience AG, priority 2008, dated 2011).

Assays:
harmful plants = assay: Pre-emergence herbicidal effect, greenhouse pot test; format: in vivo; conditions: application rate of 1 kg or less of active substance per hectare, scored after about 3 weeks
Source text: Seeds of monocotyledonous or dicotyledonous weed plants or crop plants are planted in wood-fiber pots in sandy loam and covered with soil. The compounds (I) according to the invention, formulated in the form of wettable powders (WP), are then applied as aqueous suspension or emulsion at a water application rate of 600 I/ha (converted) with the addition of 0.2% of wetting agent to the surface of the covering soil.
Following the treatment, the pots are placed in a greenhouse and kept under good growth conditions for the test plants. After about 3 weeks, the effect of the preparations is scored visually in comparison with untreated controls (herbicidal effect in percent (%): 100% effect=plants have died, 0% effect=as control plants).

[1] = test system: weed-grasses and broad-leaved weeds; assay: Post-emergence herbicidal effect, greenhouse pot test; format: in vivo; conditions: application rate of 1 kg and less of active substance per hectare, scored after 3 weeks
Description: Seeds of monocotyledonous or dicotyledonous weed plants or crop plants are planted in wood-fiber pots in sandy loam, covered with soil and grown in a greenhouse under good growth conditions. 2 to 3 weeks after sowing, the test plants are treated in the one-leaf stage. The compounds according to the invention, formulated in the form of wettable powders (WP), are then sprayed onto the green plant parts as aqueous suspension or emulsion at a water application rate of 600 I/ha (converted) with the addition of 0.2% of wetting agent. After 3 weeks' standing time of the test plants in the greenhouse under optimum growth conditions, the effect of the preparations is scored visually in comparison with untreated controls (herbicidal effect in percent (%): 100% effect=plants have died, 0% effect=as control plants).

Structure (SMILES)	herbicidal pre-emergence activity against a number of harmful plants (harmful plants)	post-emergence activity against a broad spectrum of weed-grasses and broad-leaved weeds [1]
Cc1nn(-c2ccns2)c(-c2ccc(Br)s2)c1CC(=O)O [Compound 1-67]	good herbicidal pre-emergence activity	good post-emergence activity
Cc1nn(-c2ccns2)c(-c2ccc(Br)cn2)c1CC(=O)O [Compound 1-119]	good herbicidal pre-emergence activity	good post-emergence activity
COC(=O)Cc1c(C)nn(-c2ccns2)c1-c1ccccc1 [Compound 2-2]	good herbicidal pre-emergence activity	good post-emergence activity
COC(=O)Cc1c(C)nn(-c2ccns2)c1-c1ccc(Cl)cc1 [Compound 2-28]	good herbicidal pre-emergence activity	good post-emergence activity
COC(=O)Cc1c(C)nn(-c2ccns2)c1-c1ccc(Br)s1 [Compound 2-68]	good herbicidal pre-emergence activity	good post-emergence activity
COC(=O)Cc1c(C)nn(-c2ccns2)c1-c1ccccn1 [Compound 2-116]	good herbicidal pre-emergence activity	good post-emergence activity
COC(=O)Cc1c(C)nn(-c2ccns2)c1-c1ccc(Br)cn1 [Compound 2-120]	good herbicidal pre-emergence activity	good post-emergence activity
COC(=O)Cc1c(C)nn(-c2cc(C)ns2)c1-c1ccc(Cl)cc1 [Compound 2-147, Methyl[5-(4-chlorophenyl)-3-methyl-1-(3-methylisothiazol-5-yl)-1H-pyrazol-4-yl]acetate]	good herbicidal pre-emergence activity	good post-emergence activity
COC(=O)Cc1c(C)nn(-c2cnsc2)c1-c1ccccc1 [Compound 5-2]	good herbicidal pre-emergence activity	good post-emergence activity
COC(=O)Cc1c(C)nn(-c2cnsc2)c1-c1ccc(Cl)cc1 [Compound 5-28]	good herbicidal pre-emergence activity	good post-emergence activity
COC(=O)Cc1c(C)nn(-c2cnsc2)c1-c1ccccn1 [Compound 5-115]	good herbicidal pre-emergence activity	good post-emergence activity
COC(=O)Cc1c(C)nn(-c2cnsc2)c1-c1ccc(Cl)cn1 [Compound 5-116]	good herbicidal pre-emergence activity	good post-emergence activity
COC(=O)Cc1c(C)nn(-c2cnsc2)c1-c1ccc(Br)cn1 [Compound 5-119]	good herbicidal pre-emergence activity	good post-emergence activity
COC(=O)Cc1c(C)nn(-c2cnsc2)c1-c1ccc(F)cc1 [Compound 5-131]	good herbicidal pre-emergence activity	good post-emergence activity
COC(=O)Cc1c(C)nn(-c2cnsc2)c1-c1nc2ccccc2s1 [Compound 5-216]	good herbicidal pre-emergence activity	good post-emergence activity
COC(=O)Cc1c(C)nn(-c2cnsc2)c1-c1ncc(Br)cn1 [Compound 5-227]	good herbicidal pre-emergence activity	good post-emergence activity

Structure (SMILES)	herbicidal pre-emergence activity against a number of harmful plants (harmful plants)	post-emergence activity against a broad spectrum of weed-grasses and broad-leaved weeds [1]
COC(=O)Cc1c(C)nn(-c2cnsc2)c1-c1ccc2ccccc2n1 [Compound 5-239]	good herbicidal pre-emergence activity	good post-emergence activity
COC(=O)Cc1c(C)nn(-c2cnsc2)c1-c1cc2ccccc2cn1 [Compound 5-240]	good herbicidal pre-emergence activity	good post-emergence activity
Cc1nn(-c2cncs2)c(-c2ccc(Cl)cc2)c1CC(=O)O [Compound 7-29, [5-(4-Chlorophenyl)-3-methyl-1-(1,3-thiazol-5-yl)-1H-pyrazol-4-yl]acetic acid]	good herbicidal pre-emergence activity	good post-emergence activity
COC(=O)Cc1c(C)nn(-c2cncs2)c1-c1ccccc1 [Compound 8-2]	good herbicidal pre-emergence activity	good post-emergence activity
COC(=O)Cc1c(C)nn(-c2cncs2)c1-c1ccco1 [Compound 8-4]	good herbicidal pre-emergence activity	good post-emergence activity
COC(=O)Cc1c(C)nn(-c2cncs2)c1-c1ccc(C)cc1 [Compound 8-16]	good herbicidal pre-emergence activity	good post-emergence activity
COC(=O)Cc1c(C)nn(-c2cncs2)c1-c1ccc(Cl)cc1 [Compound 8-28, methyl[5-(4-chlorophenyl)-3-methyl-1-(1,3-thiazol-5-yl)-1H-pyrazol-4-yl]acetate]	good herbicidal pre-emergence activity	good post-emergence activity
COC(=O)Cc1c(C)nn(-c2cncs2)c1-c1ccc(C(F)(F)F)cc1 [Compound 8-32]	good herbicidal pre-emergence activity	good post-emergence activity
COC(=O)Cc1c(C)nn(-c2cncs2)c1-c1sccc1C [Compound 8-64]	good herbicidal pre-emergence activity	good post-emergence activity
COC(=O)Cc1c(C)nn(-c2cncs2)c1-c1ccc(Br)s1 [Compound 8-69]	good herbicidal pre-emergence activity	good post-emergence activity
COC(=O)Cc1c(C)nn(-c2cncs2)c1-c1ccccn1 [Compound 8-117]	good herbicidal pre-emergence activity	good post-emergence activity
COC(=O)Cc1c(C)nn(-c2cncs2)c1-c1ccc(Cl)cn1 [Compound 8-118]	good herbicidal pre-emergence activity	good post-emergence activity
COC(=O)Cc1c(C)nn(-c2cncs2)c1-c1ccc(Br)cn1 [Compound 8-121]	good herbicidal pre-emergence activity	good post-emergence activity
COC(=O)Cc1c(C)nn(-c2cncs2)c1-c1ccc(F)cc1 [Compound 8-133]	good herbicidal pre-emergence activity	good post-emergence activity
COC(=O)Cc1c(C)nn(-c2cncs2)c1-c1nc2ccccc2s1 [Compound 8-219]	good herbicidal pre-emergence activity	good post-emergence activity
COC(=O)Cc1c(C)nn(-c2cncs2)c1-c1ncc(Cl)cn1 [Compound 8-229]	good herbicidal pre-emergence activity	good post-emergence activity
